Reference: patent publication US8497074B2, “Granin proteins as markers of heart disease” (Universitetet I Oslo, priority 2008, dated 2013)
Entries after “also recorded” stand apart in the source; their conditions may differ.

Experiments:
Type in all cases: cell-based
[1] = system: neonatal rat cardiomyocytes; test: SgII gene expression in isolated neonatal cardiomyocytes after stimulation with signaling agents (qRT-PCR); details: stimulated for 24 hours, vs. PBS stimulated cells
Experimental: (§1) Neonatal rat cardiomyocytes were isolated from neonatal (1-3 days) Wistar rats (Taconic, Skensved, Denmark) as previously reported. After 24 hours starvation, the cardiomyocytes were stimulated for 24 hours with the following agents; Forskolin [1 and 10 μM], norepinephrine [100 μM], endothelin [77 ng/ml] and angiotensin II [1 μM] (all Sigma, Europe), tumor necrosis factor-α(TNF-α) [10 ng/ml] (BioSource International Camarillo, Calif., USA), interleukin-1β (IL-1β) [10 ng/ml], monocyte chemoattractant protein-1 (MCP-1) [200 ng/ml], transforming growth factor-β (TGF-β) [10 ng/ml] (all R&D Systems, Minneapolis, Minn., USA), and a C-terminal CgB peptide—CgB312-323 and secretoneurin [1, 10 and 100 ng/ml] (053-20, 047-95, Phoenix Pharmaceuticals, Burlingame, Calif., USA).
(§2) Total RNA was isolated from neonatal rat cardiomyocytes according to the protocol (RNeasy mini kit, Qiagen, Valencia, Calif., USA). Along with lysis buffer, the Mixer Mill 300 System (RETSCH, Haan, Germany) and stainless steel beads (Qiagen, Hilden, Germany) were used for mechanical disruption of the cells. RNA concentrations and quality were assessed as earlier described with the NanoDrop system and an Agilent BioAnalyzer 2100. Reverse transcription reactions were performed with iScript Select cDNA Synthesis Kit (Bio-Rad Laboratories, Inc., Hercules, Calif., USA). Gene expression was determined by qRT-PCR with pre-made TaqMan Gene Expression Assays from Applied Biosystems: SgII (Rn01400686—1), CgB (Rn01514853—1), BNP (Rn00580641—1), Rp14 (Rn00821091—1). Gene expression in stimulated cells is presented as change vs. gene expression in PBS stimulated cells (normalized vs. control). All samples were run in triplicate and Rp14 gene expression was used as an internal control.

[2] = system: neonatal rat cardiomyocytes; test: CgB gene expression in isolated neonatal cardiomyocytes after stimulation with signaling agents (qRT-PCR)
Experimental: as §1, with “factor-α (TNF-α)” for “factor-α(TNF-α)”, “peptide—CgB312-323” for “peptide—CgB312-323 and secretoneurin”, “(053-20,” for “(053-20, 047-95,”
as §2, with “Biosystems:” for “Biosystems: SgII (Rn01400686—1),”
as §1, §2

[3] = system: neonatal rat cardiomyocytes; test: BNP gene expression in isolated neonatal cardiomyocytes after stimulation with signaling agents (qRT-PCR); details: stimulated for 24 hours, vs. PBS stimulated cells
Experimental: as §1, with “factor-α (TNF-α)” for “factor-α(TNF-α)”, “peptide—CgB312-323” for “peptide—CgB312-323 and secretoneurin”, “(053-20,” for “(053-20, 047-95,”
as §2, with “Biosystems:” for “Biosystems: SgII (Rn01400686—1),”
as §1, §2

[4] = neonatal rat cardiomyocytes, stimulated for 24 hours, vs. PBS stimulated cells

Row | Compound | SgII gene expression increase [1] | change in BNP gene expression (in words) [3] | change in SgII gene expression (in words) [1] | change in CgB gene expression (in words) [2, 4] | also measured
1 | C=C[C@@]1(C)CC(=O)[C@]2(O)[C@@]3(C)[C@@H](O)CCC(C)(C)[C@@H]3[C@H](O)[C@H](OC(C)=O)[C@@]2(C)O1 [Forskolin] | 40% |  |  |  | CgB production (gene expression) increase [2, 4]: 60%
2 | CC[C@H](C)[C@H](NC(=O)[C@H](CC(=O)O)NC(=O)[C@H](CC(C)C)NC(=O)[C@H](Cc1c[nH]cn1)NC(=O)[C@@H]1CSSC[C@H](N)C(=O)N[C@@H](CO)C(=O)N[C@H]2CSSC[C@H](NC(=O)[C@H](CCC(=O)O)NC(=O)[C@H](CCCCN)NC(=O)[C@H](CC(=O)O)NC(=O)[C@H](CCSC)NC(=O)[C@H](CC(C)C)NC(=O)[C@H](CO)NC(=O)[C@H](CO)NC2=O)C(=O)N[C@@H](C(C)C)C(=O)N[C@@H](Cc2ccc(O)cc2)C(=O)N[C@@H](Cc2ccccc2)C(=O)N1)C(=O)N[C@H](C(=O)N[C@@H](Cc1c[nH]c2ccccc12)C(=O)O)[C@@H](C)CC [endothelin] |  | increased | no significant change | no significant change | 
3 | NC[C@H](O)c1ccc(O)c(O)c1 [norepinephrine] | 55% |  |  |  | change in BNP gene expression (in words) ([3]; listed as NA): increased; also recorded: most powerful stimulus; also recorded: potent agents for upregulating; change in SgII gene expression (in words) ([1]; listed as NA): potent agents for upregulating; also recorded: increased; CgB gene expression, times upregulated ([2]; isolated cardiomyocytes, change vs. PBS stimulated cells (FIG. 8A)): 3 ×; CgB gene expression, fold increase ([2]; neonatal rat cardiomyocytes, stimulated for 24 hours, change vs. PBS stimulated cells): 3 fold; change in CgB gene expression (in words) ([2]; neonatal rat cardiomyocytes, stimulated for 24 hours, vs. PBS stimulated cells, listed as NA): upregulated; also recorded: potent agents for upregulating
4 | angiotensin II (DRVYIHPF; Angiotensin-2; UniProt P01019 25-32, looked up) |  | increased | no significant change | significantly upregulated | change in CgB gene expression (in words) ([2]; neonatal rat cardiomyocytes, stimulated for 24 hours, vs. PBS stimulated cells, listed as AT II): upregulated; change in CgB gene expression (in words) ([2]; neonatal rat cardiomyocytes, stimulated for 24 hours, vs. PBS stimulated cells, listed as Angiotensin II): significantly upregulated
5 | interleukin-1β |  |  | no significant change | no significant change | 
6 | monocyte chemoattractant protein-1 |  |  | no significant change | significantly upregulated | change in CgB gene expression (in words) ([2]; neonatal rat cardiomyocytes, stimulated for 24 hours, vs. PBS stimulated cells, listed as MCP-1): upregulated
7 | secretoneurin: 33 amino acid peptide fragment of SgII, 047-95, Phoenix Pharmaceuticals (TNEIVEEQYTPQSLATLESVFQELGKLTGPNNQ; Secretoneurin; UniProt P13521 182-214, looked up) |  | did not affect | did not affect | did not affect | change in SgII gene expression (in words) ([1]; listed as SgII): no significant change
8 | transforming growth factor-β | 85% |  |  | significantly upregulated | change in BNP gene expression (in words) ([3]; listed as TGF-β): increased; also recorded: potent agents for upregulating; change in SgII gene expression (in words) ([1]; listed as TGF-β): potent agents for upregulating; also recorded: increased; change in CgB gene expression (in words) ([2]; neonatal rat cardiomyocytes, stimulated for 24 hours, vs. PBS stimulated cells, listed as TGF-β): upregulated; also recorded: potent agents for upregulating
9 | tumor necrosis factor-α |  |  | no significant change | no significant change | 
